In patent US7829118B1, “Modified hyaluronic acid polymer compositions and related methods” (Carbylan Biosurgery, Inc., priority 2009, dated 2010):
Where “and” joins values, the source holds several entries; their conditions need not be identical. Equal entries are not always repeated.

Tested on: Femoral Cartilage (medial femoral condyle) of goat stifle joint
Experiment: Modified Mankin scoring of femoral cartilage after intra-articular injection in goats (Example 34)
Format: in vivo
Conditions: for Total Mankin Score / Mankin Score: Tide Mark Integrity / Mankin Score: Cells / Mankin Score: Safranin-O Stain / Mankin Score: Structure: RFC
Method: A lightly crosslinked hydrogel prepared by reaction of vinyl-sulfone-modified hyaluronic acid with PEG-dithiol (HA-VS-PEG-(SH)2), containing the corticosteroid, triamcinolone acetonide, was injected into the intraarticular space of the stifle joint of female goats. Morphological, synovial fluid and histological examinations were conducted to evaluate local and systemic effects of such injections. Details of the study are provided below.
All test materials were stored at room temperature prior to use. For each Test or Control Material, a 1.5 ml dosage was prepared for each individual intra-articular injection.
Study design was as follows.
The basic procedure for injection was identical for all subjects. All injections were performed under strict asepsis. The animals were anesthetized with an intravenous injection of Diazepam (0.1-0.5 mg/kg) and Ketamine (4.4-7.5 mg/kg) to effect. Each knee was physically examined for drawer, range of motion, swelling, temperature, crepitus, patella tracking, and valgus/varus abnormalities
All injections were conducted utilizing routine aseptic techniques. The left and right stifles were prepared for injection by clipping the areas, then cleansing them with chlorohexidine scrub. The animal was placed in dorsal recumbency. The right stifle was cleansed with chlorohexidine scrub alternating with 70% isopropyl alcohol three times and painted with iodine solution.
A standard technique was used to inject each stifle joint. A 2-inch by 21gauge sized sterile needle was introduced into the intra-articular space via an anteromedial approach. The lateral intercondylar notch wall of the medial femoral condyle was felt and the needle backed slightly off. 1.5 ml of the appropriate Test Material was injected into the right joint. The injection needle was removed and pressure was maintained on the injection site. The injected stifle joint was then cycled 20-times through a full range of motion. Immediately following this, the left stifle joint was cleansed with chlorohexidine scrub alternating with 70% isopropyl alcohol three times and painted with iodine solution and 1.5 ml of the Control Material was injected into the left stifle joint in a similar manner as described above for the right stifle. The injection needle was removed and pressure maintained on the injection site. The injected stifle joint was then cycled 20-times through a full range of motion.
Necropsy: Animals were humanely sacrificed at either 14 days or 28 days day post initial injection with an intravenous injection consisting of Diazepam 0.22 mg/kg and Ketamine 10 mg/kg for induction of general anesthesia. Following this, the anesthetized animals were given an IV overdose of concentrated potassium chloride (KCl) until the cardiac arrest had been verified.
Immediately after dissection and following gross joint surface evaluation a sagital section of each joint was cut through the medial femoral condyle (MFC). These sections were placed individually in 10% neutral buffered formalin. The fixed tissue was shipped by overnight carrier to Premier Laboratories for processing. The right and left MFC sections were processed using standard histological techniques and stained with hematoxylin and eosin (H&E) and Safranin-O (SAF-O) with a fast green counter stain. The slides from the MFC sections were evaluated by the Mankin Scoring System for osteoarthritis as described in Table 12.

[1] = Group 3, 2mg/ml, 14 day evaluation, MEAN
[2] = Group 7, 2mg/ml, 28 day evaluation, MEAN
[3] = Group 4, 8mg/ml, 14 day evaluation, MEAN
[4] = Group 8, 8mg/ml, 28 day evaluation, MEAN, animal that died prematurely not included

Structure (SMILES): CC1(C)O[C@@H]2C[C@H]3[C@@H]4CCC5=CC(=O)C=C[C@]5(C)[C@@]4(F)[C@@H](O)C[C@]3(C)[C@]2(C(=O)CO)O1 [Triamcinolone Acetonide 2mg/ml, triamcinolone acetonide]
- Total Mankin Score (Group 3, 2mg/ml, 14 day evaluation, right stifle 1.5 ml intra-articular, individual goats, maximal 14, normal 0): 4.0 and 7.0 and 8.0
- Mankin Score: Tide Mark Integrity (Group 3, 2mg/ml, 14 day evaluation, right stifle 1.5 ml intra-articular, individual goats, score 0-1): 0.0
- Mankin Score: Cells (Group 3, 2mg/ml, 14 day evaluation, right stifle 1.5 ml intra-articular, individual goats, score 0-3): 0.0 and 1.0 (2×)
- Mankin Score: Safranin-O Stain (Group 3, 2mg/ml, 14 day evaluation, right stifle 1.5 ml intra-articular, individual goats, score 0-4): 4.0 and 2.0 and 3.0
- Mankin Score: Structure (Group 3, 2mg/ml, 14 day evaluation, right stifle 1.5 ml intra-articular, individual goats, score 0-6): 0.0 and 4.0 (2×)
- Mankin Score: Cells [1]: 0.7
- Mankin Score: Safranin-O Stain [1]: 3.0
- Mankin Score: Structure [1]: 2.7
- Mankin Score: Tide Mark Integrity [1]: 0.0
- Total Mankin Score [1]: 6.3
- Total Mankin Score (Group 7, 2mg/ml, 28 day evaluation, right stifle 1.5 ml intra-articular, individual goats, maximal 14, normal 0): 6.0 and 9.0 and 10.0
- Mankin Score: Tide Mark Integrity (Group 7, 2mg/ml, 28 day evaluation, right stifle 1.5 ml intra-articular, individual goats, score 0-1): 0.0
- Mankin Score: Cells (Group 7, 2mg/ml, 28 day evaluation, right stifle 1.5 ml intra-articular, individual goats, score 0-3): 2.0 (2×) and 3.0
- Mankin Score: Safranin-O Stain (Group 7, 2mg/ml, 28 day evaluation, right stifle 1.5 ml intra-articular, individual goats, score 0-4): 4.0 and 3.0 (2×)
- Mankin Score: Structure (Group 7, 2mg/ml, 28 day evaluation, right stifle 1.5 ml intra-articular, individual goats, score 0-6): 0.0 and 4.0 (2×)
- Mankin Score: Cells [2]: 2.3
- Mankin Score: Safranin-O Stain [2]: 3.3
- Mankin Score: Structure [2]: 2.7
- Mankin Score: Tide Mark Integrity [2]: 0.0
- Total Mankin Score [2]: 8.3

Structure (SMILES): CC1(C)O[C@@H]2C[C@H]3[C@@H]4CCC5=CC(=O)C=C[C@]5(C)[C@@]4(F)[C@@H](O)C[C@]3(C)[C@]2(C(=O)CO)O1 [Triamcinolone Acetonide, triamcinolone acetonide]
- loss of Safranin O staining intensity portion of the modified Mankin score compared to either Groups 5 or 6 (Day 28, Groups 7 and 8 (2 and 8 mg/ml)): mild increase
- change in modified Mankin scores from Day 14 to Day 28 (goat stifle, 1.5 ml intra-articular): increase

Structure (SMILES): CC1(C)O[C@@H]2C[C@H]3[C@@H]4CCC5=CC(=O)C=C[C@]5(C)[C@@]4(F)[C@@H](O)C[C@]3(C)[C@]2(C(=O)CO)O1 [Triamcinolone Acetonide 8mg/ml, triamcinolone acetonide]
- Total Mankin Score (Group 4, 8mg/ml, 14 day evaluation, right stifle 1.5 ml intra-articular, individual goats, maximal 14, normal 0): 9.0 and 3.0 and 4.0
- Mankin Score: Tide Mark Integrity (Group 4, 8mg/ml, 14 day evaluation, right stifle 1.5 ml intra-articular, individual goats, score 0-1): 0.0
- Mankin Score: Cells (Group 4, 8mg/ml, 14 day evaluation, right stifle 1.5 ml intra-articular, individual goats, score 0-3): 1.0 and 0.0 (2×)
- Mankin Score: Safranin-O Stain (Group 4, 8mg/ml, 14 day evaluation, right stifle 1.5 ml intra-articular, individual goats, score 0-4): 3.0 (2×) and 4.0
- Mankin Score: Structure (Group 4, 8mg/ml, 14 day evaluation, right stifle 1.5 ml intra-articular, individual goats, score 0-6): 5.0 and 0.0 (2×)
- Mankin Score: Cells [3]: 0.3
- Mankin Score: Safranin-O Stain [3]: 3.3
- Mankin Score: Structure [3]: 1.7
- Mankin Score: Tide Mark Integrity [3]: 0.0
- Total Mankin Score [3]: 5.3
- Total Mankin Score (Group 8, 8mg/ml, 28 day evaluation, right stifle 1.5 ml intra-articular, individual goats (3588 RFC* died prematurely, 19 days), maximal 14, normal 0): 12.0 and 6.0
- Total Mankin Score (Group 8, 8mg/ml, 28 day evaluation, right stifle 1.5 ml intra-articular, individual goats (3588 RFC* died prematurely, 19 days), maximal 14, normal 0, listed as Triamcinolone Acetonide 8mg/m1): 10.0
- Mankin Score: Tide Mark Integrity (Group 8, 8mg/ml, 28 day evaluation, right stifle 1.5 ml intra-articular, individual goats (3588 RFC* died prematurely, 19 days), score 0-1): 0.0
- Mankin Score: Cells (Group 8, 8mg/ml, 28 day evaluation, right stifle 1.5 ml intra-articular, individual goats (3588 RFC* died prematurely, 19 days), score 0-3): 3.0 and 1.0
- Mankin Score: Cells (Group 8, 8mg/ml, 28 day evaluation, right stifle 1.5 ml intra-articular, individual goats (3588 RFC* died prematurely, 19 days), score 0-3, listed as Triamcinolone Acetonide 8mg/m1): 3.0
- Mankin Score: Safranin-O Stain (Group 8, 8mg/ml, 28 day evaluation, right stifle 1.5 ml intra-articular, individual goats (3588 RFC* died prematurely, 19 days), score 0-4): 4.0
- Mankin Score: Safranin-O Stain (Group 8, 8mg/ml, 28 day evaluation, right stifle 1.5 ml intra-articular, individual goats (3588 RFC* died prematurely, 19 days), score 0-4, listed as Triamcinolone Acetonide 8mg/m1): 3.0
- Mankin Score: Structure (Group 8, 8mg/ml, 28 day evaluation, right stifle 1.5 ml intra-articular, individual goats (3588 RFC* died prematurely, 19 days), score 0-6): 5.0 and 1.0
- Mankin Score: Structure (Group 8, 8mg/ml, 28 day evaluation, right stifle 1.5 ml intra-articular, individual goats (3588 RFC* died prematurely, 19 days), score 0-6, listed as Triamcinolone Acetonide 8mg/m1): 4.0
- Mankin Score: Cells [4]: 2.0
- Mankin Score: Safranin-O Stain [4]: 4.0
- Mankin Score: Structure [4]: 3.0
- Mankin Score: Tide Mark Integrity [4]: 0.0
- Total Mankin Score [4]: 9.0
